Results as given in US10195156B2, “Compounds and compositions for intracellular delivery of agents” (ModernaTX, Inc., priority 2015, dated 2019).
“Also recorded” adds a separate entry of the source. Like-named read-outs stand apart in the source and are kept apart here.

Key:
[1] = Encapsulation efficiency of RNA (QUANT-IT RIBOGREEN RNA assay); assay type: physicochemical
Method in brief: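 Nanoparticle samples diluted to ~5 μg/mL RNA in TE buffer (pH 7.5), incubated with or without 2% Triton X-100 solution at 37 °C for 15 min, then RiboGreen added. Fluorescence read at ~480/520 nm, blank-subtracted; free RNA % = intact over Triton-disrupted signal.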

[2] = tested on: hEPO mRNA expression; assay: Expression of hEPO in rats after intravenous administration; assay type: in vivo; details: for hEPO (pg/mL) 3 hours / hEPO (pg/mL) 6 hours / hEPO (pg/mL) 24 hours: Table 6, 0.2 mg/kg or 0.5 mg/kg; for Lipid/MC3 hEPO S.D. (rats): hEPO expression relative to MC3, S.D. rats, intravenous
Experimental: PBS (phosphate buffered saline) is used as control.
Formulations were prepared according to Table 5 and included mRNA encoding hEPO.
[…] After the 48 hour time point, livers and spleens were harvested and frozen.

[3] = tested on: hEPO mRNA expression; assay: Expression of hEPO in CD-1 mice; assay type: in vivo; details: for Lipid/MC3 hEPO CD-1 (mice): hEPO expression relative to MC3, CD-1 mice
From the text: FIG. 12 is a set of graphs illustrating hEPO expression levels in CD-1 mice dosed with compounds of the disclosure, compared to MC3. PBS is used as control. […] In graphs A-C numbers 1-14 refer to compositions containing the following: 1: Compound 73, 2: Compound 80, 3: Compound 70; 4: Compound 81; 5: Compound 69; 6: Compound 82; 7: Compound 83; 8: Compound 62; 9: Compound 84; 10: Compound 85; 11: Compound 86; 12: Compound 87; 13: MC3; 14: PBS.
FIG. 13 is a graph showing hEPO levels (pg/mL) in CD-1 mice up to ˜25 h after administration of a nanoparticle composition containing compounds of the disclosure, compared to a composition containing MC3. Numbers 1-13 refer to compositions containing the following: 1: Compound 73, 2: Compound 80, 3: Compound 70; 4: Compound 81; 5: Compound 69; 6: Compound 82; 7: Compound 83; 8: Compound 62; 9: Compound 84; 10: Compound 85; 11: Compound 86; 12: Compound 87; 13: MC3. […]

[4] = Lipid levels in liver and spleen 48 hours after administration; assay type: in vivo, rats; details: for concentration at 48 h: Sprague-Dawley, rat, intravenous
Method in brief: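 Rats (n=3 or 6) received lipid nanoparticle formulations intravenously at 0.2 mg/kg or 0.5 mg/kg. Liver and spleen were harvested and frozen 48 h after dosing, and the lipid amount remaining in each tissue was measured and expressed as a fraction of the dose.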

[5] = tested on: modified luciferase expression; assay: Expression of Luc in different organs (liver, lung, spleen, femur) 6 hours after intravenous administration; assay type: in vivo; details: i.v., 0.5 mpk
Experimental: The efficacy of the nanoparticle compositions presented in Tables 1, 1a, 17-1, 19-1, 20-1 and 21-1 was further evaluated by measuring the expression of modified luciferase in the liver, lung, spleen, and femur upon administration of a given composition. Formulations were administered intravenously to mice (n=3) at a dosage of 0.5 mpk and bioluminescence measured after 6 hours. The standard MC3 formulation and a PBS control were also tested.

[6] = tested on: IP-10; assay: Cytokine production induced by sample formulations: IP-10; assay type: in vivo; details: mice, i.v., 0.5 mpk, 6 hours; for IP-10: in pg/mL (unit assumed)
Method in brief: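 Mice received nanoparticle formulations intravenously at 0.5 mpk, with standard MC3 formulation and PBS as controls. Cytokine concentrations were measured 6 hours after dosing.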

[7] = Particle size and polydispersity index of nanoparticle compositions (Zetasizer Nano ZS); assay type: physicochemical
Method in brief: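 In 1×PBS, the compositions were sized on a Zetasizer Nano ZS, which also reported their polydispersity index.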

[8] = Table 1, rows without footnote mark
[9] = Table 5, hEPO mRNA, 40:20:38.5:1.5 Lipid:DOPE:Chol:PEG-DMG
[10] = liver, 48 hours after administration, read-out: Lipid in liver
[11] = spleen, 48 hours after administration, read-out: Lipid in spleen
[12] = liver, 48 hours after administration
[13] = spleen, 48 hours after administration
[14] = Table 1, rows without footnote mark (lipid:DOPE:cholesterol:PEG-DMG 40:20:38.5:1.5, Luc mRNA; MC3 standard formulation)
[15] = Table 5, hEPO mRNA, 50:10:38.5:1.5 Lipid:DSPC:Chol:PEG-DMG
[16] = Table 20-1, rows without footnote mark

CCCCCCCCCCCCN(CCCCCCCCCCCC)CCN(CCCCCCCCCCCC)CCN1CCN(CCN(CCCCCCCCCCCC)CCCCCC(=O)OCCCCC)CC1 [Compound 12, Pentyl 6-((2-(4-(2-((2-(didodecylamino)ethyl)(dodecyl)amino)ethyl)piperazin-1-yl)ethyl)(dodecyl)amino)hexanoate]
EE (%) [1, 8]: 96.9% | EE (%) [1, 9]: 93.79% | hEPO (pg/mL) 3 hours ([2]; rats, i.v.): 592260 pg/mL | hEPO (pg/mL) 6 hours ([2]; rats, i.v.): 424740 pg/mL | hEPO (pg/mL) 24 hours ([2]; rats, i.v.): 165404 pg/mL | Lipid/MC3 hEPO S.D. (rats) [2]: 0.32 | hEPO expression in mice compared with MC3 (in words) ([3]; Table 7a, mice): substantially higher | Lipid/MC3 hEPO CD-1 (mice) [3]: 2.3 | concentration at 48 h [4, 10]: 16800 ng/g | concentration at 48 h [4, 11]: 2320 ng/g | % remaining dose in liver [4, 12]: 23.8% | % remaining dose in spleen [4, 13]: 0.22% | Total Flux Liver ([5]; Table 3, mice, liver): 1.05E+09 | Total Flux Lung ([5]; Table 3, mice): 6.76E+06 | Total Flux Spleen ([5]; Table 3, mice): 1.11E+07 | IP-10 ([6]; Table 4): 2382 | PDI [7, 8]: 0.096 | Size (nm) [7, 14]: 87.8 nm | PDI [7, 9]: 0.13 | Size (nm) [7, 9]: 87.5 nm

CCCCCC=CCC=CCCCCCCCCC(CCCCCCCCC=CCC=CCCCCC)OC(=O)CCCN(C)C (centres unmarked) [MC3, heptatriaconta-6,9,28,31-tetraen-19-yl 4-(dimethylamino)butanoate, reference compound]
EE (%) [1, 8]: 97.70% | EE (%) ([1]; Table 1b): 97.3% | EE (%) [1, 15]: 97.37% | EE (%) ([1]; Table 17-1): 98.0% | EE (%) ([1]; Table 19-1): 97.6% | EE (%) [1, 16]: 97.4% | EE (%) ([1]; Table 21-1): 98.1% | hEPO (pg/mL) 3 hours ([2]; rats, i.v.): 1407947 pg/mL | hEPO (pg/mL) 6 hours ([2]; rats, i.v.): 1036013 pg/mL | hEPO (pg/mL) 24 hours ([2]; rats, i.v.): 436243 pg/mL | AUC (0.1 mpk) ([2]; hEPO expression in S.D. rats, 0.1 mpk): 1.62E+06 | AUC (1 mpk) ([2]; hEPO expression in S.D. rats, 1 mpk): 1.17E+08 | Lipid/MC3 hEPO S.D. (rats) [2]: 1 | hEPO expression in rats, comparison (in words) ([2]; rats, i.v., 0.2 or 0.5 mg/kg, Tables 6, 7a): highest hEPO expression at each time point | Lipid/MC3 hEPO CD-1 (mice) [3]: 1 | concentration at 48 h [4, 10]: 21800 ng/g | concentration at 48 h [4, 11]: 2780 ng/g | % remaining dose in liver [4, 12]: 51% | dose remaining in the liver after 48 hours [4, 12]: approximately 60% | % dose remainng Rat liver (48 h) ([4]; rat liver, 48 h): 43.11% | % remaining dose in spleen [4, 13]: 0.44% | Total Flux Femur ([5]; Table 3, mice): 3.08E+06 | Total Flux Liver ([5]; Table 3, mice, liver): 2.31E+09 | Total Flux Lung ([5]; Table 3, mice): 8.61E+06 | Total Flux Spleen ([5]; Table 3, mice): 1.95E+07 | Total Flux Femur ([5]; Table 17-3, mice): 6.03E+06 | Total Flux Liver ([5]; Table 17-3, mice, liver): 2.75E+09 | Total Flux Lung ([5]; Table 17-3, mice): 7.25E+06 | Total Flux Spleen ([5]; Table 17-3, mice): 2.62E+07 | Total Flux Liver ([5]; Table 19-3, mice, liver): 2.39E+09 | Total Flux Lung ([5]; Table 19-3, mice): 5.83E+06 | Total Flux Spleen ([5]; Table 19-3, mice): 2.45E+07 | Total Flux Femur ([5]; Table 20-3, mice): 2.60E+06 | Total Flux Liver ([5]; Table 20-3, mice, liver): 2.48E+09 | Total Flux Lung ([5]; Table 20-3, mice): 1.28E+07 | Total Flux Spleen ([5]; Table 20-3, mice): 2.85E+07 | Total Flux Liver ([5]; Table 21-3, mice, liver): 3.05E+09 | Total Flux Lung ([5]; Table 21-3, mice): 6.60E+06 | Total Flux Spleen ([5]; Table 21-3, mice): 4.73E+07 | total flux in organs, rank or organ comparison (in words) ([5]; mice, each organ or overall, 0.5 mg/kg): highest total flux; also recorded: highest expression in each organ | total flux in the liver, rank within the named table (in words) ([5]; mice, liver): highest | IP-10 ([6]; Table 4): 438 | IP-10 ([6]; Table 17-4): 500 | IP-10 ([6]; Table 19-4): 323.9 | IP-10 ([6]; Table 20-4, formula (20-I)): 499.1 | IP-10 induction, rank or comparison with IL-6 (in words) [6]: highest IL-6 and IP-10 levels | PDI [7, 8]: 0.117 | Size (nm) [7, 14]: 86.2 nm | PDI ([7]; Table 1b): 0.17 | Size (nm) ([7]; Table 1b): 74.7 nm | PDI [7, 15]: 0.11 | Size (nm) [7, 15]: 76.5 nm | PDI ([7]; Table 17-1): 0.138 | Size (nm) ([7]; Table 17-1): 83.8 nm | PDI ([7]; Table 19-1): 0.122 | Size (nm) ([7]; Table 19-1): 83.3 nm | PDI [7, 16]: 0.117 | Size (nm) [7, 16]: 84.0 nm | PDI ([7]; Table 21-1): 0.1191 | Size (nm) ([7]; Table 21-1): 91.4 nm
